The record followed here is patent US9868772B2 (INDIANA UNIVERSITY RESEARCH AND TECHNOLOGY CORPORATION, priority 2012, dated 2018).

Holding throughout (assay): cAMP induction, firefly luciferase reporter assay in HEK293 cells co-transfected with receptor
Assay type in all cases: cell-based
What all share (conditions): Table 1, analogs of SEQ ID NO: 37

For experiment [1], the target named is T1, GLP-1 receptor (Homo sapiens, UniProt P43220).
T1 construct: expressed in transfected cells; host or cells: HEK293
Here is the method: (§1) The ability of glucagon analogs to induce cAMP was measured in a firefly luciferase-based reporter assay. […] At the end of the incubation 100 microliters of LucLite luminescence substrate reagent (Perkin-Elmer, Wellesley, Mass.) were added to each well. […] Effective 50% concentrations were calculated by using Origin software (OriginLab, Northampton, Mass.

Experiment [2] concerns the target T2, GIP receptor (Homo sapiens, UniProt P48546).
T2 construct: expressed in transfected cells; host or cells: HEK293
T2 sequence (P48546 22-466): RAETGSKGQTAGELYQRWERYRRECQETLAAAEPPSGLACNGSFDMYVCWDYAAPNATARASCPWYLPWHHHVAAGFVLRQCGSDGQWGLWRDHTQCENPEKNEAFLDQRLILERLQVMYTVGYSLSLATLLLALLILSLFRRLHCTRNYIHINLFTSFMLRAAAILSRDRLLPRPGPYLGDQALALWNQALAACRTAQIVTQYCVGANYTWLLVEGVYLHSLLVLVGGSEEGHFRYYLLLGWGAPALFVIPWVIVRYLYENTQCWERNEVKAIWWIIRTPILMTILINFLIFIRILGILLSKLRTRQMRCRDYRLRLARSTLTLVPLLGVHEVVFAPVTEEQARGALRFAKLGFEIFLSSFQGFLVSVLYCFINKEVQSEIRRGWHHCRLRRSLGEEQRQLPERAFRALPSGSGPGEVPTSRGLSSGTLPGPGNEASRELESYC
On the procedure: as §1

In experiment [3] the target is T3, glucagon receptor (Homo sapiens, UniProt P47871).
T3 construct: expressed in transfected cells; host or cells: HEK293
Here is the method: as §1

Numbered stars: 1 amine (or outer) side, 2 acyl side, 3 side chain; on linkers, the order of the positions; unused ones are H or OH. Square brackets hold non-standard residues; d marks the D form. Side chains are listed from the residue outwards. Peptide text beside a SMILES is read from it. * marks the point of attachment. γGlu = O=C(O)[C@H](CCC(=O)[*:2])N[*:1]; Desaminohistidyl = O=C(CCc1c[nH]cn1)*; Palmitoyl = CCCCCCCCCCCCCCCC(=O)*

T1 sequence (P43220 24-463): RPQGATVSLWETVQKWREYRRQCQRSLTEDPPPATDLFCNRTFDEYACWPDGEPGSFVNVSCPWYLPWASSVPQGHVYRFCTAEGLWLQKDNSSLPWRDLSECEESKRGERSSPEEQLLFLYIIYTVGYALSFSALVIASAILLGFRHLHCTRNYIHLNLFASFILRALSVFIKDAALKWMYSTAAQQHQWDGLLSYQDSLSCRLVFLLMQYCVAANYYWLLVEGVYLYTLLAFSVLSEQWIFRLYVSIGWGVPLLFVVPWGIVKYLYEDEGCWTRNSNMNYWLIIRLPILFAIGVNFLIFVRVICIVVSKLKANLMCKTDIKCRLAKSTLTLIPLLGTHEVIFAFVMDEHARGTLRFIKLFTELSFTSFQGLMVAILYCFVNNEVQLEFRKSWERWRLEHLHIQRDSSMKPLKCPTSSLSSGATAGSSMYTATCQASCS
T3 sequence (P47871 26-477): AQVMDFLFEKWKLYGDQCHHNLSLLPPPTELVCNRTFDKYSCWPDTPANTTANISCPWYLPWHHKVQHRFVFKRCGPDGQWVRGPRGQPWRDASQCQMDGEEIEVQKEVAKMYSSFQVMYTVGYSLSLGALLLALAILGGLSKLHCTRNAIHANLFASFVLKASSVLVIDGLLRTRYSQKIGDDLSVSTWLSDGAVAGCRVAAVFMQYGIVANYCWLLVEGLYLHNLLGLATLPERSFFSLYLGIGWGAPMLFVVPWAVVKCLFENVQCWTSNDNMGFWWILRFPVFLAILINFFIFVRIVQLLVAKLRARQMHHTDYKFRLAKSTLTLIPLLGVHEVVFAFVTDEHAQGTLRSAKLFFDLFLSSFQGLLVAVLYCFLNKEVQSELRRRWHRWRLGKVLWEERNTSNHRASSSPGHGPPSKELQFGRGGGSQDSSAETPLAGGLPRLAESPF

As usually defined, the EC50 is the concentration needed to bring the measured effect to its halfway point. Read a low EC50 as higher potency in that assay. Turning to `CCCCCCCCCCCCCCCC(=O)N[C@@H](CCC(=O)NCCCC[C@H](NC(=O)[C@H](CC(=O)O)NC(=O)[C@H](CO)NC(=O)[C@@H](NC(=O)[C@H](Cc1ccccc1)NC(=O)[C@@H](NC(=O)CNC(=O)[C@H](CCC(N)=O)NC(=O)[C@H](C)NC(=O)[C@@H](Cc1c[nH]cn1)NC(C)=O)[C@@H](C)O)[C@@H](C)O)C(=O)N[C@@H](CO)C(=O)N[C@@H](CCCCN)C(=O)N[C@@H](Cc1ccc(O)cc1)C(=O)N[C@@H](CC(C)C)C(=O)N[C@@H](CC(=O)O)C(=O)N[C@@H](CCC(=O)O)C(=O)N[C@@H](CCCNC(=N)N)C(=O)N[C@@H](C)C(=O)N[C@@H](C)C(=O)N[C@@H](CCC(N)=O)C(=O)N[C@@H](CC(=O)O)C(=O)N[C@@H](Cc1ccccc1)C(=O)N[C@H](C(=O)N[C@@H](CCC(N)=O)C(=O)N[C@@H](Cc1c[nH]c2ccccc12)C(=O)N[C@@H](CC(C)C)C(=O)N[C@@H](CC(C)C)C(=O)N[C@@H](CCC(=O)O)C(=O)NCC(=O)NCC(=O)N1CCC[C@H]1C(=O)N[C@@H](CO)C(=O)N[C@@H](CO)C(=O)NCC(=O)N[C@@H](C)C(=O)N1CCC[C@H]1C(=O)N1CCC[C@H]1C(=O)N1CCC[C@H]1C(=O)N[C@@H](CO)C(N)=O)C(C)C)C(=O)O` [compound 13], the EC50 in experiment [1] was determined as 4 pM; in experiment [2] it was 4 pM; in experiment [3] it was 2 pM.

`CCCCCCCCCCCCCCCC(=O)N[C@@H](CCC(=O)NCCCC[C@H](NC(=O)[C@H](CC(=O)O)NC(=O)[C@H](CO)NC(=O)[C@@H](NC(=O)[C@H](Cc1ccccc1)NC(=O)[C@@H](NC(=O)CNC(=O)[C@H](CCC(N)=O)NC(=O)CNC(=O)[C@@H](Cc1ccc(O)cc1)NC(C)=O)[C@@H](C)O)[C@@H](C)O)C(=O)N[C@@H](CO)C(=O)N[C@@H](CCCCN)C(=O)N[C@@H](Cc1ccc(O)cc1)C(=O)N[C@@H](CC(C)C)C(=O)N[C@@H](CC(=O)O)C(=O)N[C@@H](CCC(=O)O)C(=O)N[C@@H](CCCNC(=N)N)C(=O)N[C@@H](C)C(=O)N[C@@H](C)C(=O)N[C@@H](CCC(N)=O)C(=O)N[C@@H](CC(=O)O)C(=O)N[C@@H](Cc1ccccc1)C(=O)N[C@H](C(=O)N[C@@H](CCC(N)=O)C(=O)N[C@@H](Cc1c[nH]c2ccccc12)C(=O)N[C@@H](CC(C)C)C(=O)N[C@@H](CC(C)C)C(=O)N[C@@H](CCC(=O)O)C(=O)NCC(=O)NCC(=O)N1CCC[C@H]1C(=O)N[C@@H](CO)C(=O)N[C@@H](CO)C(=O)NCC(=O)N[C@@H](C)C(=O)N1CCC[C@H]1C(=O)N1CCC[C@H]1C(=O)N1CCC[C@H]1C(=O)N[C@@H](CO)C(N)=O)C(C)C)C(=O)O` [compound 14] (Ac-[dY]GQGTFTSDK([γGlu-Palmitoyl])SKYLDERAAQDFVQWLLEGGPSSGAPPPS-NH2): the EC50 in experiment [1] is 22 pM; in experiment [2] it was 5 pM; in experiment [3] it was 5 pM.

In the case of `CCCCCCCCCCCCCCCC(=O)N[C@@H](CCC(=O)NCCCC[C@H](NC(=O)[C@H](CC(=O)O)NC(=O)[C@H](CO)NC(=O)[C@@H](NC(=O)[C@H](Cc1ccccc1)NC(=O)[C@@H](NC(=O)CNC(=O)[C@H](CCC(N)=O)NC(=O)[C@H](C)NC(=O)[C@H](N)Cc1ccc(O)cc1)[C@@H](C)O)[C@@H](C)O)C(=O)N[C@@H](CO)C(=O)N[C@@H](CCCCN)C(=O)N[C@@H](Cc1ccc(O)cc1)C(=O)N[C@@H](CC(C)C)C(=O)N[C@@H](CC(=O)O)C(=O)N[C@@H](CCC(=O)O)C(=O)N[C@@H](CCCNC(=N)N)C(=O)N[C@@H](C)C(=O)N[C@@H](C)C(=O)N[C@@H](CCC(N)=O)C(=O)N[C@@H](CC(=O)O)C(=O)N[C@@H](Cc1ccccc1)C(=O)N[C@H](C(=O)N[C@@H](CCC(N)=O)C(=O)N[C@@H](Cc1c[nH]c2ccccc12)C(=O)N[C@@H](CC(C)C)C(=O)N[C@@H](CC(C)C)C(=O)N[C@@H](CCC(=O)O)C(=O)NCC(=O)NCC(=O)N1CCC[C@H]1C(=O)N[C@@H](CO)C(=O)N[C@@H](CO)C(=O)NCC(=O)N[C@@H](C)C(=O)N1CCC[C@H]1C(=O)N1CCC[C@H]1C(=O)N1CCC[C@H]1C(=O)N[C@@H](CO)C(N)=O)C(C)C)C(=O)O` [compound 15], the EC50 in experiment [1] was 4 pM; in experiment [2], 8 pM; in experiment [3] it was 50 pM.

As for `CCCCCCCCCCCCCCCC(=O)N[C@@H](CCC(=O)NCCCC[C@H](NC(=O)[C@H](CC(=O)O)NC(=O)[C@H](CO)NC(=O)[C@@H](NC(=O)[C@H](Cc1ccccc1)NC(=O)[C@@H](NC(=O)CNC(=O)[C@H](CCC(N)=O)NC(=O)[C@H](C)NC(=O)[C@H](N)Cc1c[nH]cn1)[C@@H](C)O)[C@@H](C)O)C(=O)N[C@@H](CO)C(=O)N[C@@H](CCCCN)C(=O)N[C@@H](Cc1ccc(O)cc1)C(=O)N[C@@H](CC(C)C)C(=O)N[C@@H](CC(=O)O)C(=O)N[C@@H](CCC(=O)O)C(=O)N[C@@H](CCCNC(=N)N)C(=O)N[C@@H](C)C(=O)N[C@@H](C)C(=O)N[C@@H](CCC(N)=O)C(=O)N[C@@H](CC(=O)O)C(=O)N[C@@H](Cc1ccccc1)C(=O)N[C@H](C(=O)N[C@@H](CCC(N)=O)C(=O)N[C@@H](Cc1c[nH]c2ccccc12)C(=O)N[C@@H](CC(C)C)C(=O)N[C@@H](CC(C)C)C(=O)N[C@@H](CCC(=O)O)C(=O)NCC(=O)NCC(=O)N1CCC[C@H]1C(=O)N[C@@H](CO)C(=O)N[C@@H](CO)C(=O)NCC(=O)N[C@@H](C)C(=O)N1CCC[C@H]1C(=O)N1CCC[C@H]1C(=O)N1CCC[C@H]1C(=O)N[C@@H](CO)C(N)=O)C(C)C)C(=O)O` [compound 16], the EC50 in experiment [1] came out at 2 pM; in experiment [2] it was 10 pM; in experiment [3] it was 10 pM.

As to `CCCCCCCCCCCCCCCC(=O)N[C@@H](CCC(=O)NCCCC[C@H](NC(=O)[C@H](CC(=O)O)NC(=O)[C@H](CO)NC(=O)[C@@H](NC(=O)[C@H](Cc1ccccc1)NC(=O)[C@@H](NC(=O)CNC(=O)[C@H](CCC(N)=O)NC(=O)[C@H](C)NC(=O)[C@@H](Cc1cccs1)NC(C)=O)[C@@H](C)O)[C@@H](C)O)C(=O)N[C@@H](CO)C(=O)N[C@@H](CCCCN)C(=O)N[C@@H](Cc1ccc(O)cc1)C(=O)N[C@@H](CC(C)C)C(=O)N[C@@H](CC(=O)O)C(=O)N[C@@H](CCC(=O)O)C(=O)N[C@@H](CCCNC(=N)N)C(=O)N[C@@H](C)C(=O)N[C@@H](C)C(=O)N[C@@H](CCC(N)=O)C(=O)N[C@@H](CC(=O)O)C(=O)N[C@@H](Cc1ccccc1)C(=O)N[C@H](C(=O)N[C@@H](CCC(N)=O)C(=O)N[C@@H](Cc1c[nH]c2ccccc12)C(=O)N[C@@H](CC(C)C)C(=O)N[C@@H](CC(C)C)C(=O)N[C@@H](CCC(=O)O)C(=O)NCC(=O)NCC(=O)N1CCC[C@H]1C(=O)N[C@@H](CO)C(=O)N[C@@H](CO)C(=O)NCC(=O)N[C@@H](C)C(=O)N1CCC[C@H]1C(=O)N1CCC[C@H]1C(=O)N1CCC[C@H]1C(=O)N[C@@H](CO)C(N)=O)C(C)C)C(=O)O` [compound 17], the EC50 turned out to be 5 pM in experiment [1], 11 pM in experiment [2] and 8 pM in experiment [3].

With `CCCCCCCCCCCCCCCC(=O)N[C@@H](CCC(=O)NCCCC[C@H](NC(=O)[C@H](CC(=O)O)NC(=O)[C@H](CO)NC(=O)[C@@H](NC(=O)[C@H](Cc1ccccc1)NC(=O)[C@@H](NC(=O)CNC(=O)[C@H](CCC(N)=O)NC(=O)[C@H](C)NC(=O)[C@H](Cc1cccs1)NC(C)=O)[C@@H](C)O)[C@@H](C)O)C(=O)N[C@@H](CO)C(=O)N[C@@H](CCCCN)C(=O)N[C@@H](Cc1ccc(O)cc1)C(=O)N[C@@H](CC(C)C)C(=O)N[C@@H](CC(=O)O)C(=O)N[C@@H](CCC(=O)O)C(=O)N[C@@H](CCCNC(=N)N)C(=O)N[C@@H](C)C(=O)N[C@@H](C)C(=O)N[C@@H](CCC(N)=O)C(=O)N[C@@H](CC(=O)O)C(=O)N[C@@H](Cc1ccccc1)C(=O)N[C@H](C(=O)N[C@@H](CCC(N)=O)C(=O)N[C@@H](Cc1c[nH]c2ccccc12)C(=O)N[C@@H](CC(C)C)C(=O)N[C@@H](CC(C)C)C(=O)N[C@@H](CCC(=O)O)C(=O)NCC(=O)NCC(=O)N1CCC[C@H]1C(=O)N[C@@H](CO)C(=O)N[C@@H](CO)C(=O)NCC(=O)N[C@@H](C)C(=O)N1CCC[C@H]1C(=O)N1CCC[C@H]1C(=O)N1CCC[C@H]1C(=O)N[C@@H](CO)C(N)=O)C(C)C)C(=O)O` [compound 21], the 50% effective concentration (EC50) amounted to 26 pM in experiment [1], 40 pM in experiment [2] and 6 pM in experiment [3].

As for `CCCCCCCCCCCCCCCC(=O)N[C@@H](CCC(=O)NCCCC[C@H](NC(=O)[C@H](CC(=O)O)NC(=O)[C@H](CO)NC(=O)[C@@H](NC(=O)[C@H](Cc1ccccc1)NC(=O)[C@@H](NC(=O)CNC(=O)[C@H](CCC(N)=O)NC(=O)[C@H](C)NC(=O)CCc1c[nH]cn1)[C@@H](C)O)[C@@H](C)O)C(=O)N[C@@H](CO)C(=O)N[C@@H](CCCCN)C(=O)N[C@@H](Cc1ccc(O)cc1)C(=O)N[C@@H](CC(C)C)C(=O)N[C@@H](CC(=O)O)C(=O)N[C@@H](CCC(=O)O)C(=O)N[C@@H](CCCNC(=N)N)C(=O)N[C@@H](C)C(=O)N[C@@H](C)C(=O)N[C@@H](CCC(N)=O)C(=O)N[C@@H](CC(=O)O)C(=O)N[C@@H](Cc1ccccc1)C(=O)N[C@H](C(=O)N[C@@H](CCC(N)=O)C(=O)N[C@@H](Cc1c[nH]c2ccccc12)C(=O)N[C@@H](CC(C)C)C(=O)N[C@@H](CC(C)C)C(=O)N[C@@H](CCC(=O)O)C(=O)NCC(=O)NCC(=O)N1CCC[C@H]1C(=O)N[C@@H](CO)C(=O)N[C@@H](CO)C(=O)NCC(=O)N[C@@H](C)C(=O)N1CCC[C@H]1C(=O)N1CCC[C@H]1C(=O)N1CCC[C@H]1C(=O)N[C@@H](CO)C(N)=O)C(C)C)C(=O)O` [compound 22] (Desaminohistidyl-AQGTFTSDK([γGlu-Palmitoyl])SKYLDERAAQDFVQWLLEGGPSSGAPPPS-NH2), the EC50 in experiment [1] came out at 3 pM; in experiment [2], 41 pM; in experiment [3], 17 pM.
